Here are results for 11 molecules from ChEMBL document CHEMBL1201862, “PubChem BioAssay data set” (2004).

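Following 48 hours of exposure in 96-well plates, responses at five concentrations were used to interpolate endpoints linearly. GI50 is the concentration that inhibits growth by half.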 The source made the active and inactive calls. Cut-off read from the data, not from the text of the source: active = GI50 up to about 1.1 µM and inactive = higher. Where a SMILES comes first, the peptide text is derived from it. [ ]: non-standard residue; d: D form. The star is where a group is joined. ξ: configuration not given here. ξD = NC(CC(=O)O)C(=O)O; Ac3c = NC1(C(=O)O)CC1; Boc = CC(C)(C)OC(=O)*; OBn = c1ccc(CO*)cc1

Some test systems named below: A498; SK-MEL-5; SF-295; NCI-H522; NCI-H460; U-251; TK-10; SF-539; NCI-H23; HCT-116; UO-31; SNB-19; HOP-62; SK-MEL-2; HT-29; HL-60; MCF7; Malme-3M; SNB-75; HCC 2998.
Holding throughout (assay): inhibition of tumour cell growth, NCI panel, 48 h

Take `C1=C(c2ccccc2)Nc2nnnn2C1c1ccccc1` (centres undefined): the GI50 is 37.2 µM (inactive) with A498; 40.7 µM (inactive) with SK-MEL-5; 28.6 µM (inactive) in the assay with SF-295; 23.1 µM (inactive) with NCI-H522; 34 µM (inactive) in the assay with NCI-H460; 18.6 µM (inactive) with U-251. Further, the GI50 was 28.6 µM (inactive) in the assay with TK-10; 25.1 µM (inactive) in the assay on SF-539; > 100 µM (inactive) in the assay with NCI-H23; 9.93 µM (inactive) with HCT-116; > 100 µM (inactive) with UO-31; 49.4 µM (inactive) in the assay on SNB-19. The GI50 in the assay on HOP-62 was 38.5 µM (inactive); in the assay on SK-MEL-2 it was 27.5 µM (inactive); in the assay with HT-29 it was 17.4 µM (inactive); in the assay on HL-60 it was 21.9 µM (inactive); with MCF7 it was 7.66 µM (inactive).

For the molecule `COC(=O)C1(NC(=O)C(CC(=O)OCc2ccccc2)NC(=O)OC(C)(C)C)CC1` (centres undefined) (Boc-[ξD](OBn)-[Ac3c]-OMe), the GI50 in the assay on A498, in the assay on SK-MEL-5, with SF-295, in the assay with Malme-3M, in the assay on NCI-H522 and in the assay with NCI-H460 was > 100 µM (inactive) each time. Moreover, the GI50 in the assay with U-251, in the assay with TK-10, in the assay with SF-539, with NCI-H23, in the assay on HCT-116 and in the assay on UO-31 was > 100 µM (inactive) throughout. In addition, the GI50 in the assay with SNB-75, in the assay on SNB-19, in the assay with HOP-62, in the assay with SK-MEL-2, in the assay with HT-29 and in the assay with MCF7 was > 100 µM (inactive) in each case.

Consider `COc1cccc(/C=C2\CCCc3ccccc3C2=O)c1`, for which the GI50 is 14.9 µM (inactive) in the assay on SF-295; 19.6 µM (inactive) in the assay on Malme-3M; 15 µM (inactive) in the assay with NCI-H522; 14.5 µM (inactive) in the assay with NCI-H460; 15 µM (inactive) in the assay with U-251; 26.4 µM (inactive) in the assay with TK-10. The GI50 in the assay with SF-539 is 17.1 µM (inactive); in the assay on NCI-H23 it was 15.1 µM (inactive); with HCT-116 it was 13.3 µM (inactive); in the assay on UO-31 it was 15.1 µM (inactive); in the assay on SNB-75, 23.4 µM (inactive); with SNB-19, 11.7 µM (inactive). Also, the GI50 is 16.1 µM (inactive) in the assay with HOP-62; 13.8 µM (inactive) with SK-MEL-2; 17.1 µM (inactive) in the assay on HT-29; 13.8 µM (inactive) in the assay on HL-60; 13.6 µM (inactive) with MCF7.

Turning to `Cc1ccc(/C=N/NC2=NCCN2)s1`, the GI50 in the assay on SK-MEL-5, in the assay on SF-295, with Malme-3M, in the assay with NCI-H522, in the assay with HCC 2998 and in the assay on U-251 was > 100 µM (inactive) throughout. The GI50 is > 100 µM (inactive) in the assay with TK-10; > 100 µM (inactive) with SF-539; > 100 µM (inactive) in the assay with NCI-H23; > 100 µM (inactive) with HCT-116; 44.9 µM (inactive) in the assay on UO-31; > 100 µM (inactive) in the assay with SNB-75. Further, the GI50 with SNB-19, in the assay on HOP-62, with SK-MEL-2, in the assay on HT-29, in the assay on HL-60 and in the assay with MCF7 was > 100 µM (inactive) in each case.

Consider `Cc1cccc(NS(=O)(=O)c2ccc(/N=N/c3c(O)c(C(=O)O)cc4ccccc34)cc2)n1`, for which the GI50 in the assay with SK-MEL-5, in the assay with SF-295, in the assay with Malme-3M, with NCI-H522, in the assay with HCC 2998 and with NCI-H460 was > 100 µM (inactive) in each case. Moreover, the GI50 in the assay with U-251, in the assay on TK-10, in the assay with SF-539, in the assay on NCI-H23, with HCT-116 and in the assay with UO-31 was > 100 µM (inactive) in each case. The GI50 in the assay on SNB-75, in the assay with SNB-19, with HOP-62, with SK-MEL-2, in the assay with HT-29 and with HL-60 was > 100 µM (inactive) each time. For the same molecule, in the assay on MCF7, the GI50 is > 100 µM (inactive).

On to `CCOP(=O)(/C=C\n1cnc2c(=O)n(C(C)=O)c(N)nc21)OCC`, for which the GI50 in the assay on A498, in the assay with SK-MEL-5, in the assay on SF-295, in the assay with NCI-H460, in the assay on U-251 and in the assay with TK-10 was > 100 µM (inactive) throughout. In addition, the GI50 with SF-539, in the assay on NCI-H23, in the assay with HCT-116, with SNB-75, in the assay with SNB-19 and with HOP-62 was > 100 µM (inactive) in each case. Besides, the GI50 in the assay with HT-29, with HL-60 and in the assay with MCF7 was > 100 µM (inactive) throughout.

Consider `NN/C(=N\S(=O)(=O)c1cc2ccccc2s1)Nc1ccc(Cl)cc1`, for which the GI50 in the assay with A498 is 19.9 µM (inactive); in the assay on SK-MEL-5, 17.9 µM (inactive); in the assay on SF-295, 19.9 µM (inactive); with NCI-H460 it was 18.5 µM (inactive); with U-251, 17.7 µM (inactive); with TK-10, 23 µM (inactive). Moreover, the GI50 in the assay with SF-539 was 16.1 µM (inactive); in the assay on NCI-H23 it was 20.3 µM (inactive); in the assay on HCT-116 it was 16.9 µM (inactive); in the assay with UO-31, 18 µM (inactive); in the assay with SNB-75, 20.6 µM (inactive); in the assay with SNB-19, 27 µM (inactive). In addition, the GI50 in the assay with HOP-62 is 18.8 µM (inactive); with SK-MEL-2, 18.1 µM (inactive); in the assay on HT-29, 19.9 µM (inactive); in the assay with HL-60 it was 22.4 µM (inactive); in the assay with MCF7, 20.2 µM (inactive).

On to `c1ccc2c(c1)cc1c3[nH]c4ccccc4c3ccn21`, for which the GI50 with SK-MEL-5 was > 10 µM (inactive); in the assay on SF-295 it was > 10 µM (inactive); in the assay with Malme-3M, 1.65 µM (inactive); in the assay on NCI-H522, > 10 µM (inactive); with HCC 2998, > 10 µM (inactive); in the assay with NCI-H460 it was > 10 µM (inactive). Besides, the GI50 was > 10 µM (inactive) with U-251; > 10 µM (inactive) in the assay with TK-10; > 10 µM (inactive) in the assay with SF-539; > 10 µM (inactive) with NCI-H23; 6.92 µM (inactive) in the assay on HCT-116; > 10 µM (inactive) in the assay with UO-31. Besides, the GI50 in the assay on SNB-75 was > 10 µM (inactive); in the assay on SNB-19, > 10 µM (inactive); in the assay with HOP-62 it was > 10 µM (inactive); in the assay with SK-MEL-2 it was > 10 µM (inactive); with HT-29, > 10 µM (inactive); in the assay with HL-60 it was 0.687 µM (active). In the assay on MCF7, the GI50 was 1.19 µM (inactive).

Turning to `C=C(C)[C@@H]1CC[C@@]2(C)[C@H]1[C@H]1CCC3[C@@]4(C)CC[C@H](O)C(C)(C)[C@@H]4CC[C@@]3(C)[C@]1(C)C[C@@H]2O` (some centres undefined) [CALENDULADIOL], the GI50 in the assay with A498 is > 100 µM (inactive); in the assay with SK-MEL-5, 19.1 µM (inactive); with SF-295, 23.7 µM (inactive); with Malme-3M, 33 µM (inactive); in the assay on NCI-H522 it was 17.6 µM (inactive); in the assay on NCI-H460 it was 23 µM (inactive). Besides, the GI50 is 25.3 µM (inactive) with U-251; > 100 µM (inactive) with TK-10; 67 µM (inactive) in the assay with SF-539; > 100 µM (inactive) with NCI-H23; 43.5 µM (inactive) in the assay on HCT-116; 27.3 µM (inactive) in the assay on SNB-75. Moreover, the GI50 was 54.7 µM (inactive) in the assay on SNB-19; > 100 µM (inactive) in the assay on HOP-62; 24.4 µM (inactive) in the assay with HT-29; 19.5 µM (inactive) with HL-60; 22.8 µM (inactive) in the assay with MCF7.

With `COc1ccc(Nc2nn3c(=O)c4c(C)c(C)sc4nc3s2)cc1`, the GI50 in the assay on SK-MEL-5 was 41.1 µM (inactive); in the assay with SF-295, 37.7 µM (inactive); with Malme-3M it was 32.2 µM (inactive); with NCI-H522, 25.5 µM (inactive); in the assay on NCI-H460, 28.6 µM (inactive); in the assay with U-251, 37.9 µM (inactive). Also, the GI50 in the assay on TK-10 is 26.8 µM (inactive); in the assay with SF-539, 33 µM (inactive); in the assay with NCI-H23, 18.7 µM (inactive); with HCT-116, 26.7 µM (inactive); in the assay on UO-31, 18 µM (inactive); in the assay with SNB-75, 22.7 µM (inactive). Besides, the GI50 with SNB-19 is 47.6 µM (inactive); with HOP-62, 29.1 µM (inactive); with SK-MEL-2, 35.6 µM (inactive); in the assay on HT-29 it was 42.3 µM (inactive); with HL-60, 97.5 µM (inactive); with MCF7 it was 34.8 µM (inactive).

On to `COC(=O)C(=C/c1ccc(OC)cc1)/C(C(=O)O)=C(/C)c1ccccc1`, for which the GI50 with A498, in the assay on SK-MEL-5, in the assay with SF-295, in the assay on Malme-3M, in the assay with NCI-H522 and in the assay with HCC 2998 was > 100 µM (inactive) in each case. Moreover, the GI50 in the assay with NCI-H460, with U-251, in the assay on TK-10, in the assay on SF-539, with NCI-H23 and with HCT-116 was > 100 µM (inactive) throughout. Besides, the GI50 in the assay on UO-31, with SNB-75, with SNB-19, in the assay on HOP-62, with SK-MEL-2 and in the assay with HT-29 was > 100 µM (inactive) each time. The GI50 in the assay with HL-60 was > 100 µM (inactive).
